The results in this text go back to ChEMBL document CHEMBL1157943, “Oblongifolins A-D, polyprenylated benzoylphloroglucinol derivatives from Garcinia oblongifolia” (J Nat Prod, 2006).

Activity calls are given as the source filed them. The rule behind the calls is not given here.

Experiment [1] in a line: Inhibition of microtubule disassembly.
Experiment [2] in a line: Inhibition of tubulin assembly.
Experiment [3] is described as follows: Inhibition of microtubule disassembly at 10 mg/ml.
Experiment [4] can be described thus: Inhibition of tubulin assembly at 10 mg/ml.

With `CC(C)=CCC/C(C)=C/C[C@H]1C[C@]2(C/C=C(\C)CCC=C(C)C)C(=O)[C@@](CC=C(C)C)(C(=O)C(C(=O)c3ccc(O)c(O)c3)=C2O)C1(C)C` [OBLONGIFOLIN D], in experiment [1], the result was inactive. Besides, in experiment [2], the IC50 is 92 µM.
For `CC(C)=CCC/C(C)=C/C[C@@H]1C[C@@]2(C/C=C(\C)CCC=C(C)C)C(=O)[C@](CC=C(C)C)(C(=O)C(C(=O)c3ccc(O)c(O)c3)=C2O)C1(C)C` [GUTTIFERONE B], in experiment [1], the result was inactive. The molecule further yielded a half-maximal inhibitory concentration (IC50) in experiment [2] of 53 µM.
For the molecule `CC(C)=CCC/C(C)=C/C[C@@H]1C[C@]2(CC=C(C)C)C(=O)[C@@](CC=C(C)C)(C(=O)C(C(=O)c3ccc(O)c(O)c3)=C2O)C1(C)C` [OBLONGIFOLIN B], the inhibition in experiment [3] worked out at 7%. For the same molecule, it took 69 µM to reach half-maximal inhibition in experiment [2] (IC50).
Take `CC(C)=CCC/C(C)=C/C[C@@H]1C[C@]2(CC=C(C)C)C(=O)[C@@](CC=C(C)C)(C(=O)C(C(=O)c3ccc(O)c(O)c3)=C2O)[C@@]1(C)CCC=C(C)C` [OBLONGIFOLIN C]: the result in experiment [1] was inactive. In addition, in experiment [2], half-maximal inhibition (IC50) required 53 µM.
Consider `C=C(C)[C@@H](CC=C(C)C)C[C@@]12C[C@@H](CC=C(C)C)C(C)(C)[C@@](CC=C(C)C)(C(=O)C(C(=O)c3ccc(O)c(O)c3)=C1O)C2=O` [GARCINOL], for which the inhibition in experiment [3] worked out at 46%. For the same molecule, the IC50 in experiment [2] came to 97 µM.
For `CC(=O)O[C@H]1C(=O)[C@@]2(C)[C@H]([C@H](OC(=O)c3ccccc3)[C@]3(O)C[C@H](OC(=O)[C@H](O)[C@@H](NC(=O)c4ccccc4)c4ccccc4)C(C)=C1C3(C)C)[C@]1(OC(C)=O)CO[C@@H]1C[C@@H]2O` [PACLITAXEL], it took 0.5 µM to reach half-maximal inhibition in experiment [1] (IC50). In addition, the outcome in experiment [2] was inactive.
Take `CC(C)=CCC/C(C)=C/C[C@H]1C[C@]2(CC=C(C)C)C(=O)[C@@](CC=C(C)C)(C(=O)C(C(=O)c3ccc(O)c(O)c3)=C2O)C1(C)C`: the outcome in experiment [1] was inactive. In addition, the inhibition in experiment [4] is 41%.
